Data set [1] deals with T1, hCEPT1 (human choline/ethanolamine phosphotransferase 1) (Homo sapiens, UniProt Q9Y6K0).
T1 construct: gene CEPT1
T1 sequence (Q9Y6K0 1-416): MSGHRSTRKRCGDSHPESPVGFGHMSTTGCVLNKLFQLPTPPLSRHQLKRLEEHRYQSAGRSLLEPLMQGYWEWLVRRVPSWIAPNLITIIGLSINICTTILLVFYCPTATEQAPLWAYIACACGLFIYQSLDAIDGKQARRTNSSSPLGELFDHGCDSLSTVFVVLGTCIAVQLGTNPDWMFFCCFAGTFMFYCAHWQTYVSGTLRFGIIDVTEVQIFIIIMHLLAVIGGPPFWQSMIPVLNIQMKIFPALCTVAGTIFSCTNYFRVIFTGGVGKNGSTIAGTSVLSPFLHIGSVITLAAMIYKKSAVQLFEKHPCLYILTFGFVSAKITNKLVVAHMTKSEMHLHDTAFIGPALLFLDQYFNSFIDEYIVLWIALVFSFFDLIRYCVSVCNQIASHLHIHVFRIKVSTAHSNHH
Description: isothermal titration calorimetry; cryo-EM structure of the complex. As to conditions: read-out: binding affinity. Background: ITC needs no label: the signal is the heat of the interaction.

Data set [2] deals with T1, hCEPT1 (human choline/ethanolamine phosphotransferase 1). As to conditions: co-substrate diacylglycerol in cholate/POPC micelles; Mg2+ 20 mM; pH 8.0; 37 °C.
Data set [3] concerns the molecule itself. Description: cryo-EM structure; purified CEPT1 at about 15 mg/ml in 25 mM Tris pH 8.0, 150 mM NaCl, 0.005% GDN; alone (3.7 Å) and with 10 mM CDP-choline (3.8 Å); C2 symmetry applied, a similar map with C1.

Take `C[N+](C)(C)CCOP(=O)(O)OP(=O)([O-])OC[C@H]1O[C@@H](n2ccc(N)nc2=O)[C@H](O)[C@@H]1O` [CDP-choline]: the Kd in data set [1] turned out to be 46 µM.
Regarding `NCCOP(=O)(O)OP(=O)(O)OC[C@H]1O[C@@H](n2ccc(N)nc2=O)[C@H](O)[C@@H]1O` [CDP-ethanolamine], the “HPLC assay of CMP release” value in data set [2] was “CMP release was approximately doubled when CDP-choline was used as the substrate compared with CDP-ethanolamine”.

B1: human choline/ethanolamine phosphotransferase 1 (CEPT1), full length (enzyme, UniProt Q9Y6K0 1-416, looked up)
chain: MSGHRSTRKRCGDSHPESPVGFGHMSTTGCVLNKLFQLPTPPLSRHQLKRLEEHRYQSAGRSLLEPLMQGYWEWLVRRVPSWIAPNLITIIGLSINICTTILLVFYCPTATEQAPLWAYIACACGLFIYQSLDAIDGKQARRTNSSSPLGELFDHGCDSLSTVFVVLGTCIAVQLGTNPDWMFFCCFAGTFMFYCAHWQTYVSGTLRFGIIDVTEVQIFIIIMHLLAVIGGPPFWQSMIPVLNIQMKIFPALCTVAGTIFSCTNYFRVIFTGGVGKNGSTIAGTSVLSPFLHIGSVITLAAMIYKKSAVQLFEKHPCLYILTFGFVSAKITNKLVVAHMTKSEMHLHDTAFIGPALLFLDQYFNSFIDEYIVLWIALVFSFFDLIRYCVSVCNQIASHLHIHVFRIKVSTAHSNHH
notes: residues 28-407 modelled in each protomer; Homodimer in the cryo-EM structures; membrane protein in GDN detergent; No removal of the tags is described; also called hCEPT1; CEPT1-A; source: FreeStyle 293-F suspension cells, transiently transfected, purified (anti-FLAG M2 resin, NTA resin, SEC in 0.005% GDN)
One may read the stoichiometry N as the number of molecules, sites or subunits per partner or assembly. As for B1, the “stoichiometry N” value in data set [3] turned out to be 2.
